Consider six compounds from patent publication US10722530B2, “Methods of diagnosing and treating cancer” (CASE WESTERN RESERVE UNIVERSITY, priority 2016, dated 2020).

One data set has as its system γH2AX foci in DLD1 cells. As to the kind of experiment: γH2AX foci immunofluorescence staining. It is filed as cell-based, human. The following applies: 10 μM Q-VD-OPh with 50 nM 5-FdU, DLD1 shSCR or shUDG. As to the method: (§1) Cells cultured on glass coverslips were treated with 5-FdU in the presence or absence of 10 μM caspase inhibitor Q-VD-OPH (BioVision Inc). Cells were fixed in 3.7% formaldehyde for 10 minutes, blocked with PBS containing 10% FBS and 0.1% Triton X-100 for 20 minutes, washed with PBS three times, and incubated with primary anti-γH2AX antibody (Millipore, dilution: 1:150) in PBS containing 0.1% Triton X-100 at 4° C. overnight. The cells were then washed with PBS three times, incubated with secondary antibodies (Alexa Fluor 594, Life Technologies; dilution: 1:400) in PBS containing 0.1% Triton X-100 for 1 h, and washed with PBS three times. The slides were mounted with antifade solution with DAPI (Cell Signaling) and visualized on a Leica laser microscope.

In data set [1] the test system is γH2AX foci in HEC1A cells. As to the kind of experiment: γH2AX foci immunofluorescence staining. It is filed as cell-based, human. Conditions: 10 μM Q-VD-OPh with 50 nM 5-FdU, HEC1A shSCR or shUDG. The protocol:
as §1

For data set [2], the system named is cleaved PARP in HEC1A cells. As to the kind of experiment: Western blot of cleaved PARP. The class given is cell-based, human. Conditions: 10 μM Q-VD-OPh, 50 nM 5-FdU, HEC1A shSCR and shUDG. As to the method:
(§2) Western blots were performed as described in Yan et al. (Clin Cancer Res. (2007) 13:1532-39). Antibodies used were as follows: Anti-UDG (FL-313) (Santa Cruz Biotechnology), anti-Cleaved PARP (Asp214)(19F4) (Cell Signaling), and anti-α-Tubulin (Calbiochem).
In general terms: A western blot detects proteins with antibodies after separation by electrophoresis.

Data set [3] relates to cleaved PARP in DLD1 cells. As to the kind of experiment: Western blot of cleaved PARP. The class given is cell-based, human. The following applies: 10 μM Q-VD-OPh, 50 nM 5-FdU, DLD1 shSCR and shUDG. The protocol:
as §2

A further data set concerns DLD1 colon cancer cells. Conditions: for effect of UDG depletion on drug sensitivity: DLD1 shUDG vs shSCR.
Data set [4] relates to HEC1A endometrial cancer cells. As to the kind of experiment: Colony survival assay, shSCR and shUDG cells. The following applies: HEC1A shUDG vs shSCR. The class given is cell-based, human.
Protocol: UDG knockdown was performed via shRNA transduction with validated clone from Sigma-Aldrich. The ID of UDG shRNA clone is NM_003362.2-656s21c1. A non-targeted scramble control shRNA clone (Sigma-Aldrich) was also used. Transfection of shRNA clones was performed according to manufacturer's specifications from Lipofectamine 2000 (Invitrogen). Lentiviral particles were produced via HEK293 cells, and targeted cells were infected and selected with puromycin. The stable UDG knockdown levels were verified for q-PCR and western blot analysis.
DLD1 (200 cells/well) or HEC1A (300 cells/well) cells were plated in 6-well culture dishes and allowed to adhere for 16 h. Cells were treated with drug for 24 h, gently washed twice with 1×PBS, and incubated with fresh media for at least 10 days to allow individual colonies to form. Colonies were stained with methylene blue, and only colonies containing ≥50 cells were counted. The percentage of survival was determined relative to untreated control averaged over 3 independent experiments.

Read-outs that look alike come from different tables or passages of the source.

Protocol for DLD1 colon cancer cells: UDG knockdown was performed via shRNA transduction with validated clone from Sigma-Aldrich. […] A non-targeted scramble control shRNA clone (Sigma-Aldrich) was also used. Transfection of shRNA clones was performed according to manufacturer's specifications from Lipofectamine 2000 (Invitrogen). Lentiviral particles were produced via HEK293 cells, and targeted cells were infected and selected with puromycin. The stable UDG knockdown levels were verified for q-PCR and western blot analysis.
Colonies were stained with methylene blue, and only colonies containing ≥50 cells were counted. The percentage of survival was determined relative to untreated control averaged over 3 independent experiments.
Description for HCT116 p53 KO cells: (§3) p53 or UDG knockdown was achieved via shRNA transduction. Lentiviral vectors LV-THM-shp53 (which also expresses a GFP reporter) or LV-Bleo-shp53 to perform p53 KD in WT HCT116 cells were obtained from Case Western Reserve University, Cleveland, Ohio Lentiviral vector targeting GFP (sh-GFP) was used as control. UDG shRNA vectors (shUDG: NM_003362.2-656s21c1, shUDG-2: NM_003362.2-758s21c1, and shUDG-3: NM_003362.2-893s21c1) were purchased from Sigma, and a scramble targeting shRNA vector (Sigma) was used as paired control. The lentiviral production and infection were performed as previously described. Cells stably infected with LV-THM-p53 were isolated by cell sorting on the basis of their GFP expression.
(§4) Cancer cells (200-300 cells/well) were seeded in 6-well culture dishes and allowed to adhere overnight. For 5-FdU, cells were treated for 24 h, then gently washed with PBS, and incubated with fresh media for at least 10 days to allow individual colonies to form. […] After 10-18 days, the plates were stained with methylene blue. Colonies containing ≥50 cells were counted. The percentage of survival was determined relative to untreated control averaged over 3 independent experiments.
Description for HCT116 p53 WT cells: as §3, §4

Regarding `O=c1[nH]cc(F)c(=O)[nH]1` [5-FU, 5-Fluorouracil], the “effect of UDG depletion on cytotoxicity” value is “only moderately sensitized” with HCT116 p53 KO cells (HCT116 p53 KO, shUDG vs shSCR) and “no significant survival differences” in the data set on HCT116 p53 WT cells (HCT116 p53 WT, shUDG vs shSCR).
As for `CC(C)[C@H](NC(=O)c1ccc2ccccc2n1)C(=O)N[C@@H](CC(=O)O)C(=O)COc1c(F)cccc1F` [Q-VD-OPh], the “γH2AX foci, Q-VD-OPh treated vs non-treated” value (in the data set on γH2AX foci in DLD1 cells; in data set [1]) was “essentially the same” each time. In addition, the “cleaved PARP induced by 5-FdU in presence of Q-VD-OPh” value in data set [2] and in data set [3] was “almost completely blocked” each time.
With `N.N.[Cl][Pt][Cl]` [cisplatin, cis-diamminedichloroplatinum II], the “effect of UDG depletion on drug sensitivity” value (“effect … on drug sensitivity” below) (with DLD1 colon cancer cells; in data set [4]) was “no further sensitivity” in each case.
Consider `COc1cccc2c1C(=O)c1c(O)c3c(c(O)c1C2=O)C[C@@](O)(C(=O)CO)C[C@@H]3O[C@H]1C[C@H](N)[C@H](O)[C@H](C)O1` [doxorubicin], for which the “effect … on drug sensitivity” value (in the data set on DLD1 colon cancer cells; in data set [4]) was “no further sensitivity” in each case.
On to `Nc1nc2[nH]cc(CCc3ccc(C(=O)N[C@@H](CCC(=O)O)C(=O)O)cc3)c2c(=O)[nH]1` [pemetrexed], for which the “effect … on drug sensitivity” value (in the data set with DLD1 colon cancer cells; in data set [4]) was “sensitization was also observed” in each case. The “effect of UDG depletion on cytotoxicity” value is given as “sensitized” in the data set with HCT116 p53 KO cells and “no significant survival differences” with HCT116 p53 WT cells.
As for `Cc1cn([C@H]2C[C@H](O)[C@@H](CO)O2)c(=O)[nH]c1=O` [thymidine], the “rescue of 5-FdU cell death by thymidine given 24 h after” value with DLD1 colon cancer cells (20 μM thymidine 24 h after 5-FdU, UDG depleted cells) is listed as “barely inhibited cell death”. Moreover, in the data set with DLD1 colon cancer cells (20 μM thymidine simultaneously with 0 to 200 nM 5-FdU, shSCR or shUDG), the “cell killing by 5-FdU with simultaneous thymidine” value is reported as “almost no killing”.
